Legend:
CsiD (HEGluA) = target: T1, CsiD (HEGluA) (Escherichia coli, UniProt P76621); test: L-2HG formation by engineered C. glutamicum, HPLC of supernatant; type: cell-based, Corynebacterium glutamicum; conditions: whole cells, endogenously formed glutarate; Fe(II) and 2-oxoglutarate dependent; 96 h
T1 construct: gene glaH; untagged, from pVWEx1-ldcC-csiD(Ec) in C. glutamicum GSLA2G; whole-cell production
T1 sequence (P76621 1-325): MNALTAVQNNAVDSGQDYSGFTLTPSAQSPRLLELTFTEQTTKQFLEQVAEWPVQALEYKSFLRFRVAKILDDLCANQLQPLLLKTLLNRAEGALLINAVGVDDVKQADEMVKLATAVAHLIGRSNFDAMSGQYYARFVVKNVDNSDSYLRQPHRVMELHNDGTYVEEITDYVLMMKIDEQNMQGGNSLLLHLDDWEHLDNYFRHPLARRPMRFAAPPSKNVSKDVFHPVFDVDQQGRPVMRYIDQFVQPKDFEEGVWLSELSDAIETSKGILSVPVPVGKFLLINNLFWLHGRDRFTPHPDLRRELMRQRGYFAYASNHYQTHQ

CsiD (HPGluA) = target: T2, CsiD (HPGluA) (Pseudomonas putida, UniProt Q88IU0); test: as above; type: cell-based; conditions: whole cells, endogenously formed glutarate; Fe(II) and 2-oxoglutarate dependent; 96 h
T2 construct: gene glaH; untagged, from pVWEx1-ldcC-csiD(Pp) in C. glutamicum GSLA2G; whole-cell production
T2 sequence (Q88IU0 1-325): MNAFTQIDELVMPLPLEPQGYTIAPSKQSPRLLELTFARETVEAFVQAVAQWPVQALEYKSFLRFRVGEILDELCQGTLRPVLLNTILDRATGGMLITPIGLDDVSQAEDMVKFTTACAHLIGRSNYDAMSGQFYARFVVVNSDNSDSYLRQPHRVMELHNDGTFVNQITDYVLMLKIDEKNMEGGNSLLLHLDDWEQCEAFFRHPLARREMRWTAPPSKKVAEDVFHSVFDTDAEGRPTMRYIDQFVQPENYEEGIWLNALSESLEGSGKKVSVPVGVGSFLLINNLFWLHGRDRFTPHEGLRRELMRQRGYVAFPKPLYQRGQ

## O=C(O)CCCC(=O)O [glutarate]
CsiD (HEGluA)
  L-2HG formation by engineered C. glutamicum, HPLC of supernatant: the three strains produced and secreted L-2HG
CsiD (HPGluA)
  L-2HG formation by engineered C. glutamicum, HPLC of supernatant: the three strains produced and secreted L-2HG

— paper PMC7873477, “Fermentative Production of L-2-Hydroxyglutarate by Engineered Corynebacterium glutamicum via Pathway Extension of L-Lysine Biosynthesis” (Frontiers in Bioengineering and Biotechnology, 2021)
